Assay results taken from patent EP0139358B1, “N6-substituted diarylalkyl adenosines, processes for their production and pharmaceutical compositions comprising the same” (priority 1983, dated 1985).
Where two headings read alike, the source gives them in different places.

Key:
male Swiss-Webster mice = assay: Analgesic evaluation: antiwrithing (AW) test, acetic acid; assay type: in vivo; conditions: Mus musculus, sc, read-out: AW ED50
Description: The antiwrithing (AW) test provides preliminary assessment of compounds with potential analgesic activity. The test is performed in male Swiss-Webster mice. Compounds are administered subcutaneously in aqueous 0.2% methylcellulose or other appropriate vehicles in volumes of 10 ml/kg. Dosages represent activity moiety.
Acetic acid (0.6%, 10 ml/kg) is injected intraperitroneally 20 minutes after administration of the adenosine agonist. Writhing movements are counted for five minutes starting seven minutes after the acetic acid injection. Writhing is defined as abdominal constriction and stretching of the body and hind legs with concave arching of the back. […] EDso values are calculated by nonlinear regression analysis.

Swiss-Webster male mice [1] = assay: Mouse Activity and Screen Test (MAST): screen test (ST); assay type: in vivo; conditions: lowest dose at which an A rating (60-100%) is achieved, screen test; intraperitoneally
Description: Treatments are administered intraperitoneally one hour prior to testing. […] Compounds are dissolved or suspended in 0.2% Methocel. Control animals are injected with Methocel.
The compounds are identified in the Examples.

rat heart = assay: Coronary blood flow (PCS2A): isolated perfused heart; conditions: Rattus norvegicus
[2] = tested on: Long-Evans rats or squirrel-monkeys; assay: Antipsychotic lever-push shock avoidance protocol (SIDR); assay type: in vivo; conditions: Rattus norvegicus, read-out: SIDR ED50
Description: Representative compounds of the invention (identified in the Examples) were also tested for antipsychotic activity according to the following protocol (SIDR). […] Mature male Long-Evans rats or squirrel-monkeys are conditioned to push a lever in order to avoid a painful electric footshock. If the animal fails to push the lever, he receives a shock every ten seconds until the lever is pushed. Shocks can be terminated by pushing the lever. Thereafter, as long as the lever is pushed at least once every 20 seconds, there will be no shock. Each animal acts as its own control; one weekly session is used to establish baseline behavior and another session later in the week is used as a drug session. Once patterns of avoidance are established, the effects of standard and unknown compounds are studied. All events are electronically programmed and the response to these events counted or used as feedback to the program.

Swiss-Webster male mice [3] = assay: Mouse Activity and Screen Test (MAST): inhibition of spontaneous locomotion (LI); assay type: in vivo; conditions: for Inhibition of mouse locomotor activity: one hour prior to testing, vs vehicle

SMILES: OC[C@H]1O[C@@H](n2cnc3c(NCC(c4ccccc4)c4ccccc4)ncnc32)[C@H](O)[C@@H]1O [Example 1, N^6-(2,2-Diphenylethyl)adenosine]
- ED50 (male Swiss-Webster mice): 6.9 mg/kg
- MAST ST LAD (Swiss-Webster male mice [1]): >100 mg/kg
- activation at 0.001 µM (rat heart; read-out: CF): 7%
- activation at 0.003 µM (rat heart; read-out: CF): 15%
- activation at 0.01 µM (rat heart; read-out: CF): 32%
- activation at 0.1 µM (rat heart; read-out: CF): 43%
- activation at 1 µM (rat heart; read-out: CF): 50%
- EC50 (rat heart; read-out: PCS2A CF ED50): 1000 nM
- EC50 (rat heart; read-out: PCS2A HR ED50): 2000 nM
- ED50 [2]: 2.5 mg/kg
- Inhibition of mouse locomotor activity (Swiss-Webster male mice [3]; 10 mg/kg intraperitoneally): 92%
- Inhibition of mouse locomotor activity (Swiss-Webster male mice [3]; 30 mg/kg intraperitoneally): 93%
- Inhibition of mouse locomotor activity (Swiss-Webster male mice [3]; 100 mg/kg intraperitoneally): 94%
- minimal effective dose (Swiss-Webster male mice [3]; Mus musculus, ip, read-out: MAST LI LAD): 3 mg/kg
